Measurements reported in a melting point compilation (Tetko et al.; mined from patent text by program, amines drawn as free bases though some values may be those of a salt).

SMILES	melting point [°C]
CCOC(=O)c1ccc(OCC2CCN(c3ccc(OC)nn3)CC2)cc1	147
CCOC(=O)CCNC(=O)c1n[nH]cc1NC(=O)c1cccc(C)n1	228 to 229
Nc1c(NCCCO)c(=O)c1=O	256 to 258
CNC(=S)NCCSCc1ncccc1N	99.5
Cc1cc(-c2cccc(C(F)(F)F)c2)n2nc(C(F)(F)F)nc2n1	133 to 134
N#Cc1nn(-c2c(Cl)cc(C(F)(F)F)cc2Cl)c(N)c1-c1ccc(Br)s1	214
CCOC(=O)C1=C(C)N(C(C)=O)C(c2csc(C)n2)=NC1c1ccc(C)cc1 (stereo not given)	187 to 188
CC(C)CC(=O)Nc1cc(-c2ccnc3c(C(=O)c4cccs4)cnn23)ccc1F	192 to 194
COc1ccc(C(=O)N2CCCC2=O)cc1	120
Cc1ccc2oc3ccc(C)cc3c2c1	62 to 64
Cc1cc2cn[nH]c2c(C(=O)NC2(C3CC3)CC2)c1NC(=O)c1cc(Br)nn1-c1ncccc1Cl	170 to 173
CC1=C(C(=O)OCC(C)C)C(c2cccc([N+](=O)[O-])c2)c2c(nc(N3CCOCC3)nc2N2CCOCC2)N1 (stereo not given)	214
C=CC(=O)NCc1cc([N+](=O)[O-])ccc1C	155 to 158
CCOC(=O)C=Cc1ccc(C(=O)c2ccc3c(c2)C2(C)C4(C)CCC(C4)C2(C)O3)cc1 (stereo not given)	115 to 116
CN1C(=O)C(NC(=O)CCc2ccc(Cl)cc2Cl)N=C(c2ccccc2)c2ccncc21 (stereo not given)	220 to 221
COC(=O)C(O)(c1ccc(Cl)c(Cl)c1)c1ccc(Cl)c(Cl)c1	69
COc1c(O)ccc(C=O)c1[N+](=O)[O-]	136 to 137
Cc1cc(Cl)ccc1NC(=O)NC(=O)C(Cl)CCl (stereo not given)	111 to 113
COCCOc1ccc(-c2cncc(C#N)c2Nc2ccc3[nH]ccc3c2C)cc1	208 to 210
O=[N+]([O-])c1ccc(-c2oncc2CCCO)cc1	132 to 133
CC(C)Oc1nc(N)nc2[nH]cnc12	204 to 206

SMILES	melting point [°C]
CSC1NC(=O)N(C(C)C)C(=O)N1N=C(C)C (stereo not given)	110 to 112
Oc1ccc2c(c1)C(Cc1c[nH]cn1)CC2 (stereo not given)	206 to 208
NC(=N[N+](=O)[O-])NCCSCc1csc(NC(N)=NCC(F)(F)Cl)n1	112 to 116
CCCCCCCCCCCCCCCCCCOC(=O)CP(=O)(OCC)OCC	28 to 31
CC(C)(CO)C(O)(Cn1cncn1)c1ccc(F)cc1F (single isomer, unassigned; (+))	116 to 118
COC(=O)[C@]12CN(Cc3ccccc3)C[C@@H]1C(c1ccc(OC)cc1)=CC[C@@]2(C)c1ccccc1 (racemic)	132
CCOC(=O)c1c(CN(CC)CC)nc2sc3cnccc3c2c1-c1ccc(O)c(OC)c1	179 to 181
CC1(C)CCC[C@]2(C)OC(=O)C[C@H]12	74 to 75
Cc1n[nH]c(=O)n1-c1ccc(OCC(F)(F)C(F)F)cc1	206 to 207
CC(C)(C(=O)O)n1c(=O)[nH]c2cc(F)c(F)cc2c1=O	242 to 244
CCCCCCCCCCCCCCCCCCOc1cc(C(=O)O)cc(C(=O)N(CC(=O)O)CC(=O)O)c1	108 to 112
CCCCCN(CCC12CC3CC(CC(C3)C1)C2)C(=O)NC/C=C/c1ccncc1	90 to 118
CC(C)(C)[Si](C)(C)OC1CN(c2ccc([N+](=O)[O-])cc2F)C1	98.5 to 99.5
Cn1c(=O)c2ccccc2n(C)c1=S	184
Cc1cc(C2=NN(C(=O)OC(C)(C)C)[C@H](C)Cc3cc4c(cc32)OCO4)cc(C)c1[N+](=O)[O-]	222 to 223
Oc1ccc(F)nc1I	96 to 98
Cc1csc(C2(c3cccs3)CCCO2)n1 (stereo not given)	59 to 60
CCC(C)(C)Nc1c(NCc2ccc(C)c(Cl)c2)c(=O)c1=O	261 to 263
C[C@]1(COc2ccc(N3CCC(COc4ccc(CCl)cc4)CC3)cc2)Cn2cc([N+](=O)[O-])nc2O1	140 to 142
CCOC(=O)COc1cccc2c1CCC(Br)C2=O (stereo not given)	74 to 75
N[C@@H](Cc1cccc(OC(F)(F)C(F)F)c1)[C@H](O)c1ccc(F)nc1 (racemic)	103 to 104

SMILES	melting point [°C]
Oc1nc(Cc2ccc(F)cc2)ncc1F	169 to 170
C#CC(C)Oc1cc(Cl)ccc1-n1c(=O)cc(C(F)(F)F)n(C)c1=O (stereo not given)	96 to 99
CC(=O)OC1CSC(Sc2ccccc2C#N)C(OC(C)=O)C1OC(C)=O (stereo not given)	160
CC1(C)Oc2cc(Cl)c(F)cc2[C@@H](Br)[C@@H]1O (relative stereo)	97 to 99
O=C1CC2(CCCC2)C(O)C(=O)N1CCCCN1CCN(c2ncccn2)CC1 (stereo not given)	110
N#CCc1cc(Cl)cc(Cl)c1	31 to 32
O=c1n(CCCCCl)nc2n1-c1ccccc1OC2	56 to 57
O=C(NCCCSc1ccncc1)c1ccsc1	121 to 122
CCCOc1ccccc1-c1nc(NCCCO)cc(=O)[nH]1	148
COC(=O)c1[nH]c(C)c2c1CN=C(c1ccccc1F)c1cc(Cl)ccc1-2	228 to 231
Cn1cc(-c2ccncc2)cc(N)c1=O	175 to 176
CNc1cc2c(c(C)c1F)c(=O)c(C(=O)O)cn2-c1cc(N)c(F)cc1F	> 270
FC(F)C(F)(F)Sc1nc(-c2cccs2)c(-c2cccs2)[nH]1	162 to 164
CC(C)(C)CCN[C@@H](CC(=O)O)C(=O)O	184 to 186
NC(=O)Cc1ccc(CCCOCCCCCCBr)cc1	110 to 113
COc1ccc(CCOc2ccnc(Cl)c2)cc1OC	116 to 117
C=C(C)CNc1cccc(-c2ccnc3c(C(=O)c4cccs4)cnn23)c1	104 to 106
COc1ccc(SC2SC(=O)NC2=O)cc1 (stereo not given)	89 to 91
N#Cc1ccc(NC(=O)OC2CN3CCC2CC3)cc1 (stereo not given)	180 to 182

Next, values leading:

melting point [°C]	SMILES
142 to 145	CS(=O)(=O)c1ccc(-c2cnn(-c3cccc(Cl)c3)c(=O)c2SCc2ccccc2)cc1
145 to 147	COc1ccc(Cc2ccc(C(=O)O)nc2)cc1
119 to 120	O=C1CCC(C(=O)OCc2ccc(Cl)cc2)N1 (stereo not given)
252 to 254	O=C(O)C1CCC(Nc2nccc(-n3nnc4c(I)cccc43)n2)CC1 (stereo not given)
150	Cn1cncc1C(N)(c1ccc(CN)cc1)c1ccc2c(c1)c(-c1cccc(Cl)c1)cc(=O)n2C (stereo not given)
165 to 166	NC1=NN(c2cccc(F)c2)C(c2ccccc2)C1 (stereo not given)
135	Cc1cccc(-c2nc3ccccn3c2-c2ccnc(-c3ccc(NS(=O)(=O)C(F)(F)F)cc3)c2)n1
152 to 153	CCCCCc1ccc(-c2ncc(-c3ccc(O)cc3)cn2)cc1
151 to 172	CC(CCN1C(=O)c2ccccc2C1=O)=NO
113 to 114	N#Cc1cccc2c1CCc1cc(C(F)(F)F)ccc1S2
308 to 310	O=C1Nc2ccccc2S(=O)c2ccccc21 (stereo not given)
205 to 208	O=P(O)(O)Oc1cccc(-c2cn3c(n2)sc2ccccc23)c1
135 to 137	COc1cc(OC(C)(C)C(=O)O)c(-c2cccs2)cc1C=CC(=O)c1ccc(C(=O)O)cc1
73	COc1cccc2c1CCn1cc(-c3ccccc3)nc1C2OC1CCN(C)CC1 (stereo not given)
167 to 169	COC(=O)CNC(=O)[C@H](CSC(c1ccccc1)(c1ccccc1)c1ccccc1)NC(=O)OC(C)(C)C
281 to 283	NC(=O)c1c(Cl)c(-c2ccccc2)n2c1CN(C(=O)Nc1ccc(C(=O)O)cc1)CC2
194 to 196	OC1(c2ccc(Cl)cc2)c2ccc(Cl)cc2-c2ncncc21 (stereo not given)
71.5 to 73	OCCCc1ccccc1N(Cc1ccccc1)Cc1ccccc1
122 to 128	COC(=O)c1[nH]c2c(OCc3ccccc3)cc([N+](=O)[O-])c(CCCl)c2c1C(=O)OC
146 to 147	Cc1c(Cc2cccc(C(F)(F)F)c2)oc2c(-c3cccc(C(=O)NCCS(C)=O)c3)cccc12 (stereo not given)

melting point [°C]	SMILES
155 to 157	CCCCNC(=S)Nc1cccc(-c2ccnc3c(C(=O)c4cccs4)cnn23)c1
159 to 161	CC(=O)c1ccc(Oc2ccc(O)cc2)cc1
112 to 119	NC(=O)c1ccccc1N1CCOCC1
140	Cc1c(-c2ccccc2)n(Cc2ccccc2)c2ccc(-c3ccc(OCC#N)cc3)cc12
162 to 165	Clc1ccccc1-c1cnn2cnnc2n1
248 to 250	O=C(O)CSc1ccc(-n2cc(C3c4ccccc4C=Cc4ccccc43)c(=S)[nH]c2=O)nn1
148 to 151	Nc1ccc(-n2cc(C(=O)O)c(=O)cc2-c2ccc3ccccc3c2)cc1
131 to 133	O=C(Nc1cccc(C(=O)O)c1)Oc1ccccc1
215 to 218	N#Cc1ccc(-c2cc(C(=O)N[C@H]3CC[C@H](C(=O)O)CC3)c(=O)n(Cc3ccccc3)n2)cc1
> 230	CSc1nn2c(N)cc(N3CCN(C)CC3)nc2c1S(=O)(=O)c1ccccc1
201	CS(=O)(=O)C(=C1CN(C(c2ccccc2)c2ccccc2)C1)c1cccc(Cl)c1Cl
183	NC(=O)c1nc(-c2ccc(Oc3ccc(F)cc3)c(F)c2)cs1
140	Oc1ccccc1C=Cc1cccc2[nH]ccc12
125 to 135	Cc1noc(NS(=O)(=O)c2ccccc2-c2ccc(-c3ncco3)cc2CN(C)C(=O)c2ccc(F)cc2)c1C
244 to 245	COc1cc(Nc2c(C#N)cnc3cc(-c4ccc(CN5CCOCC5)cc4)sc23)c(Cl)cc1Cl
149 to 151	Cc1nc(N2CCN(Cc3ccccc3)C2=O)sc1C(=O)NCc1ccccn1
126 to 128	O=C(CCCCN1CCC(Cc2ccccc2)CC1)c1ccc2c(c1)-c1ccc(C(=O)CCCCN3CCC(Cc4ccccc4)CC3)c3cccc-2c13
257 to 260	O=C(Nc1ccc(C(=O)N2Cc3cccn3Cc3ccccc32)cc1)c1ccccc1F
158 to 160	Cc1ccc(Cl)c(Nc2ccccc2C(=O)NN)c1Cl
